Several values for one entry are separate records, joined by “and”; a condition that tells them apart may be missing. Equal values may be shown once.
Experiments:
[1] = Single human subject's report on overnight sleep after self-administering N-Acetyl Methyl GABA (Example 2); type: in vivo; set-up: key to Sleep Quality / Restfulness/Wakefulness / Mental Clarity/Memory / Mood / Anti-inflammatory Action (decrease in pain): 1: Very Poor; 2: Poor; 3: Fair; 4: Good; 5: Excellent
Method: Table 2 reports a human subject's sleep quality, restfulness/wakefulness, mental clarity/memory, mood, and inflammation and pain reduction after 18 overnight sleep periods over the span of 15 weeks (October-January, as shown in Table 2), with 15 of the 18 nights occurring before the first administration of N-Acetyl Methyl GABA to the subject. Table 3 reports the subject's sleep quality and other parameters after self-administering 300 mg of N-Acetyl Methyl GABA before an overnight sleep period, 40 times over the span of 9 weeks (November-January, as shown in Table 3). Data in Tables 2 and 3 are based on a rating of sleep quality and other parameters from 1 to 5, where 1 is Very Poor, 2 is Poor, 3 is Fair, 4 is Good, and 5 is Excellent. Each morning after waking, the subject reported on the sleep quality, restfulness/wakefulness, mental clarity/memory, mood, and inflammation and pain reduction they felt, and/or with regard to sleep quality, used information from a “Sleep Cycle” app on a cell phone (Sleep Cycle, www.sleepcycle.com, Gothenburg, Sweden).
For 14 of the days reported in Table 2, before the first administration of N-Acetyl Methyl GABA, data is from a sleep app on a cell phone device. Other data in Table 2 is from the subject's experience as reported for a given sleep period. The data before first administration of N-Acetyl Methyl GABA provides a baseline of sleep patterns for the subject with no sleep aid. The average sleep quality in the subject before a first administration of N-Acetyl Methyl GABA was 73.8%. The average percentage of sleep quality improved after administration of N-Acetyl Methyl GABA according to this invention, with average sleep quality at 80.4%.

[2] = Administration of N-Acetyl Methyl GABA to other human subjects, subject reports; type: in vivo
Method: Subjects report more natural sleep without the morning grogginess associated with many sleep aids. Subjects report they slept all night long without waking. […] Subjects report the mind is clear and the attitude is positive after N-Acetyl Methyl GABA was administered prior to an overnight sleep period. Without being bound by theory, this may be due to anxiolytic effects of N-Acetyl Methyl GABA.

[3] = Daytime study of N-Acetyl Methyl GABA composition without melatonin, 19 subjects (Example 6); type: in vivo, human; settings: one value per patient (1-19), over baseline, 2 teaspoons (8 g) orally once daily, 14 days
Method: The Purpose of this study was to quantify the effectiveness of N-Acetyl Methyl GABA on FAM MS (Fatigue, Anxiety, Mood, Mind, Stress) and related symptoms and qualities. (Mind refers to mental clarity, memory and focus).
Due to the above-described effects of N-Acetyl Methyl GABA on sleep and relaxation, a sleep quality section was added to see how a “daytime” version of N-Acetyl Methyl GABA (administered without melatonin) assisted with sleep quality for daytime patients. This was also beneficial for patients that prefer not to take melatonin.
Study participants: 19 subjects
7 day pre-study symptomology (no N-Acetyl Methyl GABA taken) to record a baseline of patient symptoms.
14 day study symptomology (taking N-Acetyl Methyl GABA) to record patient symptoms.
Preferred subject would have minimum two of the following symptoms prior to study: FAMMS (Fatigue, Anxiety, Mood, Mind, Stress) (Mind defines mental clarity, memory and focus issues), sleep imbalance, insomnia, daytime energy issues.
Subjects were asked to not use any additional mind/body stress relief or natural supplements other than the N-Acetyl Methyl GABA composition (“GabaSorb® Daytime”) during the 14 day study.
Subjects were asked to take 2 teaspoons of the liquid N-Acetyl Methyl GABA composition (Gabasorb Daytime) daily in the morning or early afternoon if they suffered from two or more symptoms listed in the protocol.
The N-Acetyl Methyl GABA composition described in Table 11 was taken orally by each patient once daily.
Subjects were administered 2 teaspoons (8 g) of the liquid N-Acetyl Methyl GABA composition described above.
Ratings were made each day during the study period (7 days pre-administration, 14-days during N-Acetyl Methyl GABA administration), based on a scale of 1 to 5. Improvements are shown by increased ratings over baseline in qualities such as Stress, Anxiety, Mental Clarity and Memory, Mood, Daytime Energy, and Sleep Quality for each patient in Table 12. Patient gender and age for Table 12 are as follows: Patient 1 (P1)[…], P2[…], P3[…]; P4[…], P5[…], P6[…], P7[…], P8[…], P9[…], P10[…], P11[…], P12[…], P13[…], P14:M/22, P15:F/23, P16:M/50, P17:M/19, P18:F/44, P19:F27.

[4] = average of 40 nights, scale 1 to 5, without: 2.2
[5] = daily rating 1 to 5 after overnight sleep, 300 mg before sleep, one subject
[6] = sum of 40 daily ratings, 300 mg

For COC(=O)CCCNC(C)=O [N-Acetyl Methyl GABA], the “side effects reported by the subject” value ([1]; 300 mg before overnight sleep, 40 times over 9 weeks) was “No side effects”, the “Inflammation/pain improved, percent of average score without” value ([1]; 2.1/1.7*100%) was “about 125%” and the “Mental clarity/memory improved, percent of average score without” value ([1]; 2.2/2.2*100%) was 100%. The “Mood improved, percent of average score without” value ([1]; 2.5/1.9*100%) was “about 132%”, the “Sleep quality improved, percent of average score without” value ([1]; 2.5/2.2*100%) was “approximately 115%” and the “Restfulness/wakefulness improved, percent of average score without” value ([1]; 2.6/2*100%) was 130%. For the same compound, the “average sleep quality (percentage)” value ([1]; after administration, before first administration 73.8%, sleep app on cell phone) was 80.4%, the “morning or mid-afternoon anxiety, subject report” value ([1]; after waking from the sleep periods) was “no longer feeling morning or mid-afternoon anxiety” and the “Anti-inflammatory Action (decrease in pain), average score with N-Acetyl Methyl GABA” value ([1]; average of 40 nights, scale 1 to 5, without: 1.7) was 3.8. For the same compound, the “Mood, average score with N-Acetyl Methyl GABA” value ([1]; average of 40 nights, scale 1 to 5, without: 1.9) was 4.4, the “Restfulness/Wakefulness, average score with N-Acetyl Methyl GABA” value ([1]; average of 40 nights, scale 1 to 5, without: 2) was 4.6 and the “Mental Clarity/Memory, average score with N-Acetyl Methyl GABA” value [1, 4] was 4.4. The “Sleep Quality, average score with N-Acetyl Methyl GABA” value [1, 4] was 4.7, the “Anti-inflammatory Action (decrease in pain)” value [1, 5] was 3 and 4 and 2 and 5 and the “Mental Clarity/Memory” value [1, 5] was 3 and 4 and 5. The Mood [1, 5] was 3 and 4 and 5, the Restfulness/Wakefulness [1, 5] was 3 and 4 and 5 and the “Sleep Quality” value ([1]; daily rating 1 to 5 after overnight sleep, 300 mg self-administered before sleep, one subject) was 4 and 5. For the same compound, the “Anti-inflammatory Action (decrease in pain), Total Score, 40 days” value [1, 6] was 153, the “Mental Clarity/Memory, Total Score, 40 days” value [1, 6] was 177 and the “Mood, Total Score, 40 days” value [1, 6] was 176. For the same compound, the “Restfulness/Wakefulness, Total Score, 40 days” value [1, 6] was 183, the “Sleep Quality, Total Score, 40 days” value [1, 6] was 190 and the “sleep quality, subjects' report” value ([2]; administered prior to a sleep period) was “improved sleep quality”. For the same compound, the “tolerability in other human subjects” value ([2]; human, in vivo) was “well tolerated”, the “Anxiety Reduced (%)” value [3] was 35% and 32% and 22% and 40% (2×) and 46% and 107% and 71% (2×) and 126% and 57% and 56% (2×) and 63% (3×) and 52% and 95% and 89% and the “Daytime Energy Improved (%)” value [3] was 40% and 32% and 88% (2×) and 29% and 57% and 74% and 36% and 42% and 23% and 17% and 22% (2×) and 43% and 20% and 11% and 0% and 33% (2×). For the same compound, the “Mental Clarity/Memory Improved (%)” value [3] was 57% and 55% and 72% and 43% and 100% and 82% and 52% and 56% and 131% and 70% and 59% and 23% and 25% and 33% (2×) and 71% and 16% and 30% and 40%, the “Mood Improved (%)” value [3] was 20% and 94% and 39% and 68% and 100% (4×) and 120% and 152% and 88% and 129% and 107% and 85% and 65% and 60% and 69% (2×) and 112% and the “Sleep Quality Improved (%)” value [3] was 78% (2×) and 95% and 118% and 150% and 233% and 62% (2×) and 77% and 93% and 57% and 81% and 52% (3×) and 75% and 87% and 79% and 56%. The “Stress Reduced (%)” value [3] was 48% and 45% and 36% (2×) and 33% and 72% and 17% and 25% and 40% (3×) and 78% and 69% and 27% and 56% and 85% and 41% and 52% and 55%.

— patent US12138236B2, “Compositions comprising N-Acetyl Methyl GABA and related methods” (MBI Distributing, priority 2020, dated 2024)
